Values joined by “and” are separate entries in the source; they are usually repeats but may differ in a detail not shown here. Equal values may be shown once.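 Test compounds were applied to cells in 96-well plates for 48 hours at 5 doses. The concentration for 50% growth inhibition is given as GI50. TGI is the concentration that stops growth completely.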
What was measured:
Assay in all cases: NCI tumour cell line growth inhibition, 48 h
[1] = tested on: HOP-92 NSCLC
[2] = tested on: HOP-62 NSCLC
[3] = tested on: NCI-H23 lung
[4] = tested on: DMS 273 small cell lung
[5] = tested on: A498 renal
[6] = tested on: SK-MEL-5 melanoma
[7] = tested on: K-562 leukemia
[8] = tested on: OVCAR-4 ovarian
[9] = tested on: NCI-H522 lung
[10] = tested on: LOX IMVI melanoma
[11] = tested on: MOLT-4 leukemia
[12] = tested on: CAKI-1 renal
[13] = tested on: MALME-3M melanoma
[14] = tested on: MCF7 breast
[15] = tested on: A549 NSCLC
[16] = tested on: OVCAR-5 ovarian
[17] = tested on: SW-620 colon
[18] = tested on: SF-268 CNS
[19] = tested on: SNB-19 CNS
[20] = tested on: HCT-15 colon
[21] = tested on: XF 498 CNS
[22] = tested on: IGROV1 ovarian
[23] = tested on: RPMI-8226 leukemia
[24] = tested on: SK-OV-3 ovarian
[25] = tested on: NCI-H460 lung
[26] = tested on: OVCAR-3 ovarian
[27] = tested on: HL-60(TB) leukemia
[28] = tested on: NCI-H226 lung
[29] = tested on: HCC-2998 colon
[30] = tested on: COLO 205 colon
[31] = tested on: EKVX NSCLC
[32] = tested on: UO-31 renal
[33] = tested on: HT29 colon
[34] = tested on: SK-MEL-28 melanoma
[35] = tested on: SNB-78 CNS
[36] = tested on: OVCAR-8 ovarian
[37] = tested on: SK-MEL-2 melanoma
[38] = tested on: DLD-1 colon
[39] = tested on: SNB-75 CNS
[40] = tested on: NCI/ADR-RES ovarian
[41] = tested on: SF-295 CNS
[42] = tested on: UACC-257 melanoma
[43] = tested on: SF-539 CNS
[44] = tested on: SN12K1 renal
[45] = tested on: UACC-62 melanoma
[46] = tested on: SN12C renal
[47] = tested on: U251 CNS
[48] = tested on: CCRF-CEM leukemia
[49] = tested on: HCT-116 colon
[50] = tested on: KM12 colon
[51] = tested on: HOP-18 NSCLC
[52] = tested on: DMS 114 small cell lung
[53] = tested on: M19-MEL melanoma
[54] = tested on: P388 leukemia
[55] = tested on: TK-10 renal
[56] = tested on: LXFL 529 NSCLC
[57] = tested on: ACHN renal
[58] = tested on: RXF-631 renal
[59] = tested on: RXF 393 renal
[60] = tested on: KM20L2 colon
[61] = tested on: 786-0 renal

With `C=C1CCCC(C)(C)[C@@H]1CC/C(C)=C/Cn1c2cccc(=O)c-2nc2ccccc21` the GI50 [1] was 22.7 µM, the TGI [2] was 9.37 µM and the GI50 [3] was 5.39 µM. The GI50 [4] was 3.02 µM, the TGI [4] was 24.1 µM and 3.29 µM and the GI50 [5] was 7.76 µM. The TGI [5] was 70.2 µM and 14.1 µM, the TGI [6] was 13.8 µM and the TGI [7] was > 100 µM. The GI50 [8] was 6.28 µM, the GI50 [9] was 6.35 µM and the TGI [9] was > 100 µM. The TGI [10] was 2.45 µM, the GI50 [11] was 5.55 µM and the TGI [11] was 70.7 µM and 9.78 µM. The TGI [12] was 10.7 µM, the GI50 [13] was 5.76 µM and the TGI [13] was > 100 µM. For the same molecule, the GI50 [14] was 4.92 µM, the TGI [14] was > 100 µM and 10.4 µM and the GI50 [15] was 20.9 µM. For the same molecule, the GI50 [16] was 27.1 µM, the GI50 [17] was 5.87 µM and the TGI [18] was 3.71 µM. The GI50 [19] was 9.54 µM, the TGI [19] was 60.2 µM and 15.8 µM and the GI50 [20] was 4.34 µM. The GI50 [21] was 2.8 µM, the GI50 [22] was 2.71 µM and the TGI [22] was 8.87 µM and 6.11 µM. The GI50 [23] was 3.06 µM, the TGI [23] was 9.68 µM and 17.8 µM and the TGI [24] was 10.7 µM. For the same molecule, the GI50 [25] was 14 µM, the TGI [26] was 18.9 µM and 12.5 µM and the TGI [27] was 0.354 µM. The GI50 [28] was 21.2 µM, the TGI [28] was > 100 µM and 21.6 µM and the TGI [29] was 4.53 µM. The GI50 [30] was 23.8 µM, the TGI [31] was 11.4 µM and the GI50 [32] was 3.91 µM. The GI50 [33] was 3.82 µM, the TGI [33] was 27.4 µM and 3.29 µM and the GI50 [34] was 1.82 µM. The TGI [34] was 3.46 µM and 17.6 µM, the GI50 [35] was 4.35 µM and the TGI [35] was > 100 µM. For the same molecule, the GI50 [36] was 4.28 µM, the GI50 [37] was 6.62 µM and the GI50 [38] was 4.86 µM. The GI50 [39] was 2.09 µM, the TGI [39] was 4.54 µM and 5.04 µM and the GI50 [40] was 4.23 µM. For the same molecule, the GI50 [41] was 3.93 µM, the TGI [41] was 26.9 µM and 4.16 µM and the GI50 [42] was 2.83 µM. For the same molecule, the TGI [42] was 9.02 µM and 4.68 µM, the GI50 [43] was 3.01 µM and the TGI [43] was 9.57 µM and 3.55 µM. For the same molecule, the GI50 [44] was 2.89 µM, the TGI [44] was 15.5 µM and 13.2 µM and the TGI [45] was 2.47 µM. For the same molecule, the GI50 [46] was 5.57 µM, the GI50 [47] was 10.7 µM and the TGI [48] was 13 µM. For the same molecule, the GI50 [49] was 2.55 µM, the TGI [49] was 6.62 µM and 2.73 µM and the GI50 [50] was 7.96 µM. For the same molecule, the TGI [50] was 45.4 µM and 10.4 µM, the GI50 [51] was 37.2 µM and the TGI [51] was > 100 µM and 18.2 µM. For the same molecule, the TGI [52] was 2.3 µM, the GI50 [53] was 3.07 µM and the TGI [54] was > 100 µM.

With `CC(C)CC(=O)N1CCN(C(=O)CC(C)C)c2ccccc21` the TGI [1] was > 100 µM, the TGI [2] was > 100 µM and the TGI [3] was > 100 µM. For the same molecule, the TGI [4] was > 100 µM, the TGI [5] was > 100 µM and the TGI [7] was > 100 µM. For the same molecule, the TGI [9] was > 100 µM, the TGI [55] was > 100 µM and the TGI [10] was > 100 µM. For the same molecule, the TGI [11] was > 100 µM, the TGI [13] was > 100 µM and the TGI [15] was > 100 µM. For the same molecule, the TGI [16] was > 100 µM, the TGI [17] was > 100 µM and the TGI [18] was > 100 µM. For the same molecule, the TGI [19] was > 100 µM, the TGI [21] was > 100 µM and the TGI [22] was > 100 µM. The TGI [23] was > 100 µM, the TGI [24] was > 100 µM and the TGI [25] was > 100 µM. The TGI [56] was > 100 µM, the TGI [26] was > 100 µM and the TGI [27] was > 100 µM. The TGI [29] was > 100 µM, the TGI [30] was > 100 µM and the TGI [31] was > 100 µM. For the same molecule, the TGI [57] was > 100 µM, the TGI [58] was > 100 µM and the TGI [59] was > 100 µM. For the same molecule, the TGI [32] was > 100 µM, the TGI [33] was > 100 µM and the TGI [34] was > 100 µM. The TGI [35] was > 100 µM, the TGI [36] was > 100 µM and the TGI [37] was > 100 µM. The TGI [38] was > 100 µM, the TGI [39] was > 100 µM and the TGI [60] was > 100 µM. The TGI [41] was > 100 µM, the TGI [42] was > 100 µM and the TGI [43] was > 100 µM. The TGI [61] was > 100 µM, the TGI [47] was > 100 µM and the TGI [48] was > 100 µM. For the same molecule, the TGI [49] was > 100 µM, the TGI [50] was > 100 µM and the TGI [51] was > 100 µM. The TGI [52] was > 100 µM and the TGI [53] was > 100 µM.
